How the values were obtained:
[1] = Antioxidant activity assessed as DPPH radical scavenging activity; format: functional
[2] = Antioxidant activity assessed as nitric oxide radical scavenging activity; format: functional

Structure (SMILES) | IC50 [1] | IC50 [2]
Fc1ccc2c(c1)CCC(c1nnc(-c3ccccc3)o1)O2 (stereo unspecified) | 28.7 µM | 85.9 µM
Fc1ccc2c(c1)CCC(c1nnc(-c3cnccn3)o1)O2 (stereo unspecified) | 73.4 µM | 87 µM
Fc1ccc2c(c1)CCC(c1nnc(-c3cn(Cc4c(F)cccc4F)nn3)o1)O2 (stereo unspecified) | 23.1 µM | 88 µM
COc1cc(-c2nnc(C3CCc4cc(F)ccc4O3)o2)cc(OC)c1OC (stereo unspecified) | 43.2 µM | 87 µM
Fc1ccc2c(c1)CCC(c1nnc(-c3cccc(Cl)c3)o1)O2 (stereo unspecified) | 23.1 µM | 84.8 µM
Fc1ccc2c(c1)CCC(c1nnc(-c3ccc(Cl)cc3)o1)O2 (stereo unspecified) | 17.2 µM | 85.9 µM
O=[N+]([O-])c1ccc(-c2nnc(C3CCc4cc(F)ccc4O3)o2)cc1 (stereo unspecified) | 28.7 µM | 84.8 µM
Fc1ccc2c(c1)CCC(c1nnc(-c3ccccc3Cl)o1)O2 (stereo unspecified) | 40.8 µM | 88 µM
O=C1O[C@H]([C@@H](O)CO)C(O)=C1O [ASCORBIC ACID] | 44.2 µM | 42.6 µM
Fc1ccc2c(c1)CCC(c1nnc(C3CCc4cc(F)ccc4O3)o1)O2 (stereo unspecified) | 29 µM | 87 µM
Nc1ccc(-c2nnc(C3CCc4cc(F)ccc4O3)o2)cc1 (stereo unspecified) | 34.9 µM | 89.1 µM
Fc1ccc2c(c1)CCC(c1nnc(-c3cc(F)c(F)c(F)c3F)o1)O2 (stereo unspecified) | 29 µM | 85.9 µM
O=c1cc(-c2nnc(C3CCc4cc(F)ccc4O3)o2)oc2ccc(F)cc12 (stereo unspecified) | 34.9 µM | 73.9 µM

— ChEMBL document CHEMBL4627369, “Synthesis of novel of 2, 5-disubstituted 1, 3, 4- oxadiazole derivatives and their in vitro anti-inflammatory, anti-oxidant evaluation, and molecular docking study” (Bioorg Med Chem Lett, 2020)
